Legend:
[1] = test system: pancreatic cancer patient; test: Patient treated with neoadjuvant paricalcitol plus gemcitabine/abraxane; format: in vivo, human
Description: Thus, in some examples, paricalcitol is administered at 5 or 10 μg IV three times weekly for two-three weeks before surgery. […] Paricalcitol can be given for 28 days approximately prior to planned surgery, and can be continued up to the day before surgery, since there is no relevant toxicity of this micronutrient. Last dose can be 24 h before surgery (if surgery is delayed, and additional days of therapy may be given to reach the day before surgery).

[2] = cited from earlier work
PDA patients = details: standard of care; cited from earlier work
[3] = 28 days paricalcitol with one cycle of gemcitabine/abraxane

calcium levels [1, 3] | SMILES | adverse clinical effects before surgery [1, 3] | histological analysis of resected tumor ([1]; after surgery) | serum CA 19-9 level after treatment ([1]; reduced from 120 U/mL, normal range 0-37 U/mL) [U/mL] | phosphorus and calcium levels ([2]; first 30 days of treatment) | mean plasma clearance ([2]; over 600 patients) [L/h] | benefit to PDA patients (PDA patients) [month]
no elevation calcium levels | C[C@H](/C=C/[C@H](C)C(C)(C)O)[C@H]1CC[C@H]2/C(=C/C=C3C[C@@H](O)C[C@H](O)C3)CCC[C@]12C [Paricalcitol, 19-nor-1,25-(OH)2-vitamin D2] | No adverse clinical effects | granulomas with few cancer cells | 40 | stable phosphorus and calcium levels | 1.75 | 
 | Cl.Nc1ccn([C@@H]2O[C@H](CO)[C@@H](O)C2(F)F)c(=O)n1 [gemcitabine, 2′-Deoxy-2′,2′-difluorocytidine monohydrochloride] |  |  |  |  |  | 1.5
